Earlier results, collected in patent publication US5179102A, “Naphthyridinyl/naphthyridinylalkyl-n-terminal anino hydroxy β-amino acid derivatives” (G. D. Searle & Co., priority 1991, dated 1993).
Square brackets hold non-standard residues; d marks the D form. Peptide text beside a SMILES is read from it. * marks the point of attachment. Sta = CC(C)C[C@H](N)[C@@H](O)CC(=O)O; Isovaleryl = CC(C)CC(=O)*

Test system: hog renin
Conditions: after the injection of hog renin into nephrectomized rats

In the case of `CC(C)CC(=O)N[C@H](C(=O)N[C@H](C(=O)N[C@@H](CC(C)C)[C@@H](O)CC(=O)N[C@@H](C)C(=O)N[C@@H](CC(C)C)[C@@H](O)CC(=O)O)C(C)C)C(C)C` [pepstatin] (Isovaleryl-VV[Sta]A[Sta]-OH), the “reduce blood pressure in vivo” value is listed as “found to reduce blood pressure in vivo”.
